Assay results published in ChEMBL document CHEMBL1150850, “Cytotoxic principles from Ventilago leiocarpa” (J Nat Prod, 2001).
Values belong to the molecule of their own block, whether it stands above or below them.

Tests used:
Vero [1] = assay: Inhibition of african green monkey Vero cell proliferation assessed as [3H]thymidine incorporation after 3 days by scintillation counting; format: cell-based; details: Chlorocebus sabaeus
Calu-1 [2] = assay: Inhibition of human Calu1 cell proliferation assessed as [3H]thymidine incorporation after 3 days by scintillation counting; format: functional, cell-based
WISH [3] = assay: Inhibition of human WISH cell proliferation assessed as [3H]thymidine incorporation after 3 days by scintillation counting; format: functional, cell-based
K562 [4] = assay: Inhibition of human K562 cell proliferation assessed as [3H]thymidine incorporation after 3 days by scintillation counting; format: functional, cell-based
Raji [5] = assay: Inhibition of human Raji cell proliferation assessed as [3H]thymidine incorporation after 3 days by scintillation counting; format: functional, cell-based
HeLa [6] = assay: Inhibition of human HeLa cell proliferation assessed as [3H]thymidine incorporation after 3 days by scintillation counting; format: functional, cell-based
Raji [7] = assay: Growth inhibition of human Raji cells assessed as [3H]thymidine incorporation at 25 uM after 3 days by scintillation counting; format: functional; details: read-out: GI
HeLa [8] = assay: Growth inhibition of human HeLa cells assessed as [3H]thymidine incorporation at 25 uM after 3 days by scintillation counting; format: functional; details: read-out: GI
WISH [9] = assay: Growth inhibition of human WISH cells assessed as [3H]thymidine incorporation at 6.25 uM after 3 days by scintillation counting; format: functional; details: read-out: GI
Calu-1 [10] = assay: Growth inhibition of human Calu1 cells assessed as [3H]thymidine incorporation at 25 uM after 3 days by scintillation counting; format: functional; details: read-out: GI
K562 [11] = assay: Growth inhibition of human K562 cells assessed as [3H]thymidine incorporation at 50 uM after 3 days by scintillation counting; format: functional; details: read-out: GI
[12] = Growth inhibition of african green monkey Vero cells assessed as [3H]thymidine incorporation at 6.25 uM after 3 days by scintillation counting; format: cell-based; details: chlorocebus sabaeus, read-out: GI
[13] = Growth inhibition of african green monkey Vero cells assessed as [3H]thymidine incorporation at 25 uM after 3 days by scintillation counting; format: cell-based; details: chlorocebus sabaeus, read-out: GI
[14] = Growth inhibition of african green monkey Vero cells assessed as [3H]thymidine incorporation at 50 uM after 3 days by scintillation counting; format: cell-based; details: chlorocebus sabaeus, read-out: GI
Raji [15] = assay: Growth inhibition of human Raji cells assessed as [3H]thymidine incorporation at 12.5 uM after 3 days by scintillation counting; format: functional; details: read-out: GI
Vero [16] = assay: Growth inhibition of african green monkey Vero cells assessed as [3H]thymidine incorporation at 12.5 uM after 3 days by scintillation counting; format: cell-based; details: chlorocebus sabaeus, 72 h
HeLa [17] = assay: Growth inhibition of human HeLa cells assessed as [3H]thymidine incorporation at 50 uM after 3 days by scintillation counting; format: functional; details: read-out: GI
K562 [18] = assay: Growth inhibition of human K562 cells assessed as [3H]thymidine incorporation at 3.125 uM after 3 days by scintillation counting; format: functional; details: read-out: GI
Raji [19] = assay: Growth inhibition of human Raji cells assessed as [3H]thymidine incorporation at 3.125 uM after 3 days by scintillation counting; format: functional; details: read-out: GI
HeLa [20] = assay: Growth inhibition of human HeLa cells assessed as [3H]thymidine incorporation at 12.5 uM after 3 days by scintillation counting; format: functional; details: read-out: GI
K562 [21] = assay: Growth inhibition of human K562 cells assessed as [3H]thymidine incorporation at 25 uM after 3 days by scintillation counting; format: functional; details: read-out: GI
Calu-1 [22] = assay: Growth inhibition of human Calu1 cells assessed as [3H]thymidine incorporation at 3.125 uM after 3 days by scintillation counting; format: functional; details: read-out: GI
Raji [23] = assay: Growth inhibition of human Raji cells assessed as [3H]thymidine incorporation at 6.25 uM after 3 days by scintillation counting; format: functional; details: read-out: GI
HeLa [24] = assay: Growth inhibition of human HeLa cells assessed as [3H]thymidine incorporation at 6.25 uM after 3 days by scintillation counting; format: functional; details: read-out: GI
HeLa [25] = assay: Growth inhibition of human HeLa cells assessed as [3H]thymidine incorporation at 3.125 uM after 3 days by scintillation counting; format: functional; details: read-out: GI
K562 [26] = assay: Growth inhibition of human K562 cells assessed as [3H]thymidine incorporation at 12.5 uM after 3 days by scintillation counting; format: functional; details: read-out: GI
WISH [27] = assay: Growth inhibition of human WISH cells assessed as [3H]thymidine incorporation at 50 uM after 3 days by scintillation counting; format: functional; details: read-out: GI
WISH [28] = assay: Growth inhibition of human WISH cells assessed as [3H]thymidine incorporation at 3.125 uM after 3 days by scintillation counting; format: functional; details: read-out: GI
WISH [29] = assay: Growth inhibition of human WISH cells assessed as [3H]thymidine incorporation at 12.5 uM after 3 days by scintillation counting; format: functional; details: read-out: GI
Calu-1 [30] = assay: Growth inhibition of human Calu1 cells assessed as [3H]thymidine incorporation at 12.5 uM after 3 days by scintillation counting; format: functional; details: read-out: GI
[31] = Growth inhibition of african green monkey Vero cells assessed as [3H]thymidine incorporation at 3.125 uM after 3 days by scintillation counting; format: cell-based; details: chlorocebus sabaeus, read-out: GI
Calu-1 [32] = assay: Growth inhibition of human Calu1 cells assessed as [3H]thymidine incorporation at 50 uM after 3 days by scintillation counting; format: functional; details: read-out: GI
WISH [33] = assay: Growth inhibition of human WISH cells assessed as [3H]thymidine incorporation at 25 uM after 3 days by scintillation counting; format: functional; details: read-out: GI
Raji [34] = assay: Growth inhibition of human Raji cells assessed as [3H]thymidine incorporation at 50 uM after 3 days by scintillation counting; format: functional; details: read-out: GI
Calu-1 [35] = assay: Growth inhibition of human Calu1 cells assessed as [3H]thymidine incorporation at 6.25 uM after 3 days by scintillation counting; format: functional; details: read-out: GI
K562 [36] = assay: Growth inhibition of human K562 cells assessed as [3H]thymidine incorporation at 6.25 uM after 3 days by scintillation counting; format: functional; details: read-out: GI

IC50 (Calu-1 [2]): > 100 µM | IC50 (K562 [4]): > 100 µM | IC50 (Raji [5]): > 100 µM | IC50 (HeLa [6]): > 100 µM
Compound: Cc1cc(O)c2c(c1)C(=O)c1cccc(O)c1C2=O [CHRYSOPHANOL]
IC50 (Vero [1]): > 100 µM | IC50 (WISH [3]): > 100 µM

IC50 (Calu-1 [2]): > 100 µM | IC50 (K562 [4]): > 100 µM | IC50 (Raji [5]): > 100 µM | IC50 (HeLa [6]): > 100 µM
Compound: COC1=C(O)C(=O)c2c(O)c3c(c(OC)c2C1=O)CC(C)OC3C (configuration not stated) [VENTILOQUINONE K]
IC50 (Vero [1]): > 100 µM | IC50 (WISH [3]): > 100 µM

IC50 (Calu-1 [2]): > 100 µM | IC50 (K562 [4]): > 100 µM | IC50 (Raji [5]): > 100 µM | IC50 (HeLa [6]): > 100 µM
Compound: CC1(C)CC[C@]2(C)CC=C3[C@]4(C)CC[C@H]5C(C)(C)[C@@H](O)CC[C@]5(C)[C@H]4CC[C@@]3(C)[C@@H]2C1 [TARAXEROL]
IC50 (Vero [1]): > 100 µM | IC50 (WISH [3]): > 100 µM

More lines, now with the values behind:

Compound: CC[C@H](/C=C/[C@@H](C)[C@H]1CC[C@H]2[C@@H]3CC=C4C[C@@H](O)CC[C@]4(C)[C@H]3CC[C@]12C)C(C)C [STIGMASTEROL]
IC50 (Vero [1]): > 100 µM | IC50 (Calu-1 [2]): > 100 µM | IC50 (WISH [3]): > 100 µM | IC50 (K562 [4]): > 100 µM | IC50 (Raji [5]): > 100 µM | IC50 (HeLa [6]): > 100 µM

Compound: Cc1cc(O)c2c(c1O)C(=O)c1cccc(O)c1C2=O [ISLANDICIN]
IC50 (Vero [1]): > 100 µM | IC50 (Calu-1 [2]): > 100 µM | IC50 (WISH [3]): > 100 µM | IC50 (K562 [4]): > 100 µM | IC50 (Raji [5]): > 100 µM | IC50 (HeLa [6]): > 100 µM

Compound: COc1c(O)cc2c(c1OC)C(=O)c1c(cc(C)c(O)c1O)C2=O
IC50 (Vero [1]): > 100 µM | IC50 (Calu-1 [2]): > 100 µM | IC50 (WISH [3]): > 100 µM | IC50 (K562 [4]): > 100 µM | IC50 (Raji [5]): > 100 µM | IC50 (HeLa [6]): > 100 µM

Compound: Cc1cc(O)c2c(c1)C(=O)c1c(c(O)cc(O)c1-c1c(O)cc(O)c3c1C(=O)c1cc(C)cc(O)c1C3=O)C2=O [SKYRIN]
IC50 (Vero [1]): 18.3 µM | inhibition of growth at 25 µM (Raji [7]): 82.1% | inhibition of growth at 25 µM (HeLa [8]): 100% | inhibition of growth at 6.25 µM (WISH [9]): 23.4% | IC50 (Calu-1 [2]): 15.5 µM | inhibition of growth at 25 µM (Calu-1 [10]): 100% | inhibition of growth at 50 µM (K562 [11]): 100% | inhibition at 72 h, 6.25 µM [12]: 23.1% | inhibition at 72 h, 25 µM [13]: 70.5% | inhibition at 72 h, 50 µM [14]: 100% | IC50 (WISH [3]): 21.3 µM | inhibition of growth at 12.5 µM (Raji [15]): 48.1% | growth inhibition (GI) (Vero [16]): 34.8% | inhibition of growth at 50 µM (HeLa [17]): 100% | inhibition of growth at 3.125 µM (K562 [18]): 29.7% | inhibition of growth at 3.125 µM (Raji [19]): 33.8% | inhibition of growth at 12.5 µM (HeLa [20]): 55% | inhibition of growth at 25 µM (K562 [21]): 50.6% | inhibition of growth at 3.125 µM (Calu-1 [22]): 14.3% | inhibition of growth at 6.25 µM (Raji [23]): 36.8% | inhibition of growth at 6.25 µM (HeLa [24]): 27% | inhibition of growth at 3.125 µM (HeLa [25]): 5.8% | inhibition of growth at 12.5 µM (K562 [26]): 33.5% | IC50 (K562 [4]): 27.3 µM | inhibition of growth at 50 µM (WISH [27]): 100% | inhibition of growth at 3.125 µM (WISH [28]): 24.7% | inhibition of growth at 12.5 µM (WISH [29]): 37.8% | inhibition of growth at 12.5 µM (Calu-1 [30]): 24.9% | inhibition at 72 h, 3.125 µM [31]: 19.9% | inhibition of growth at 50 µM (Calu-1 [32]): 100% | inhibition of growth at 25 µM (WISH [33]): 60% | inhibition of growth at 50 µM (Raji [34]): 100% | IC50 (Raji [5]): 12.3 µM | IC50 (HeLa [6]): 11.3 µM | inhibition of growth at 6.25 µM (Calu-1 [35]): 20.6% | inhibition of growth at 6.25 µM (K562 [36]): 22.2%
